These results are taken from patent US9637496B2, “Substituted 7-azabicycles and their use as orexin receptor modulators” (priority 2013, dated 2017).

One test addresses rat orexin 1 receptor (Rattus norvegicus (Rat), UniProt P56718). As to the kind of experiment: Rat orexin 1 receptor radioligand binding (competitive binding, HEK293 membranes).
Another test has as its target human orexin 1 receptor (Homo sapiens (Human), UniProt O43613). Description: Human orexin 1 receptor radioligand binding (competitive binding, CHO membranes).
The target of the next test is human orexin 2 receptor (Homo sapiens (Human), UniProt O43614). As to the kind of experiment: Human orexin 2 receptor radioligand binding ([3H]-EMPA competition, HEK293 membranes).
Sequence of human orexin 2 receptor (O43614 whole entry): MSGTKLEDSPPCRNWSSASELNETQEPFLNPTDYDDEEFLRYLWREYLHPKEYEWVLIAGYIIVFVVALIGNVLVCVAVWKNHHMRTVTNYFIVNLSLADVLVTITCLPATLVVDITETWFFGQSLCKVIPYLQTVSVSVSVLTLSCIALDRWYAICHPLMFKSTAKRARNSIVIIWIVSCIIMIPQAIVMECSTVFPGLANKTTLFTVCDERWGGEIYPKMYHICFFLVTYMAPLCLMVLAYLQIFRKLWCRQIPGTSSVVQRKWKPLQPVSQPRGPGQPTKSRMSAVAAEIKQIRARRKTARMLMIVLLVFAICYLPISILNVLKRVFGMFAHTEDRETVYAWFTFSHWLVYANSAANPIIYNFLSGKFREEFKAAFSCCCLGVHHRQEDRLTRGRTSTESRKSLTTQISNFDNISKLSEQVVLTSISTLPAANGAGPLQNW
Setting [1] is: human orexin 2 receptor, Table 2, averages from between 2-20 runs, read-out: hOX2 Ki.
Where [2] appears, read: Table 2, further testing, averages from 2-20 runs, read-out: rOX1 Ki.
Where [3] appears, read: Table 2, further testing, averages from 2-20 runs, read-out: hOX1 Ki.
[4] abbreviates: Table 2, further testing, averages from 2-20 runs, read-out: hOX2 Ki.
The mark [5] stands for this setting: rat orexin 1 receptor, Table 2, averages from between 2-20 runs, read-out: rOX1 Ki.
Setting [6] is: human orexin 1 receptor, Table 2, averages from between 2-20 runs, read-out: hOX1 Ki.

pKi: −log10 of the molar value. Read-outs that look alike come from different tables or passages of the source.

Sequence of rat orexin 1 receptor (P56718 whole entry): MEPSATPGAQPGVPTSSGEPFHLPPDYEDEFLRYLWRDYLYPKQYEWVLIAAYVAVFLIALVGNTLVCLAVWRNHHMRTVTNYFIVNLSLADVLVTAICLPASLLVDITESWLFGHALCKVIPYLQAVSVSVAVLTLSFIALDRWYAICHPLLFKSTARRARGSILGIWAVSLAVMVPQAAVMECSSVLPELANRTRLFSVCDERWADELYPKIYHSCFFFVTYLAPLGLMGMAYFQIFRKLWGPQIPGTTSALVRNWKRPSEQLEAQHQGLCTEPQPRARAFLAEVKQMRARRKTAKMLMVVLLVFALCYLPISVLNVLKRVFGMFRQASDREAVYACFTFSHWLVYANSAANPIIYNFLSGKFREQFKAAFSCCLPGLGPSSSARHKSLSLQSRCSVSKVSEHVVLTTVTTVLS
Sequence of human orexin 1 receptor (O43613 whole entry): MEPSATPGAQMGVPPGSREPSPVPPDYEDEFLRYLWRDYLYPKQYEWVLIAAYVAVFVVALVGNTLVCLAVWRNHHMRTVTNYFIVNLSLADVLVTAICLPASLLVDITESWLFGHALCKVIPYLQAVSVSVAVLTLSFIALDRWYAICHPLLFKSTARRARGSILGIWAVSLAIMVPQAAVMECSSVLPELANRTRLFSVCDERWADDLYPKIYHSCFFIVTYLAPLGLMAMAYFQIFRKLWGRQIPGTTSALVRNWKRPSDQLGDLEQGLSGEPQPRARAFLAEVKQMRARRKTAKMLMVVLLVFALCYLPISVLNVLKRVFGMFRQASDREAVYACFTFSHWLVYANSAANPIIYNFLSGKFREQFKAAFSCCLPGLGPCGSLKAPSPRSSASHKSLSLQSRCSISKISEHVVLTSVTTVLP

Regarding `O=C(c1c(F)cccc1-c1ncccn1)N1[C@@H]2CC[C@H]1[C@H](Nc1ccc(C(F)(F)F)cn1)C2` [Example 372, (2-fluoro-6-(pyrimidin-2-yl)phenyl)((1S,2R,4R)-2-((5-(trifluoromethyl)pyridin-2-yl)amino)-7-azabicyclo[2.2.1]heptan-7-yl)methanone], the values for the pKi on rat orexin 1 receptor (read-out: rOX1 Ki), at human orexin 1 receptor (read-out: hOX1 Ki) and at human orexin 2 receptor (setting [1]) were 7.72, 7.89 and 6.38, respectively.

As to `Cc1ccc(C(=O)N2[C@@H]3CC[C@H]2[C@H](Nc2ncc(C(F)(F)F)cc2F)C3)c(-n2nccn2)n1` [Example 452, ((1S,2R,4R)-2-((3-fluoro-5-(trifluoromethyl)pyridin-2-yl)amino)-7-azabicyclo[2.2.1]heptan-7-yl)(6-methyl-2-(2H-1,2,3-triazol-2-yl)pyridin-3-yl)methanone], the pKi at rat orexin 1 receptor (setting [2]) was 6.75; on human orexin 1 receptor (setting [3]) it was 6.65; at human orexin 2 receptor (setting [4]), 6.36.

For the molecule `O=C(c1cccc(F)c1-c1ncccn1)N1[C@@H]2CC[C@H]1[C@H](Nc1ncc(C(F)(F)F)cc1Cl)C2` [Example 384, ((1S,2R,4R)-2-((3-chloro-5-(trifluoromethyl)pyridin-2-yl)amino)-7-azabicyclo[2.2.1]heptan-7-yl)(3-fluoro-2-(pyrimidin-2-yl)phenyl)methanone], the pKi at rat orexin 1 receptor (setting [5]) is 7.82; at human orexin 1 receptor (setting [6]), 7.92; at human orexin 2 receptor (setting [1]), 6.21.

Regarding `O=C(c1cccc(F)c1-c1ncc(F)cn1)N1C2CCC1C(Oc1ccc(C(F)(F)F)cn1)C2` (racemic) [Example 434], the pKi on rat orexin 1 receptor is 6.87; on human orexin 1 receptor, 6.76; at human orexin 2 receptor it was less than 5.00.

Take `O=C(c1cccc(F)c1-n1nccn1)N1[C@@H]2CC[C@H]1[C@H](Nc1ccc(Br)cn1)C2` [Example 305, ((1S,2R,4R)-2-((5-bromopyridin-2-yl)amino)-7-azabicyclo[2.2.1]heptan-7-yl)(3-fluoro-2-(2H-1,2,3-triazol-2-yl)phenyl)methanone]: the pKi at rat orexin 1 receptor (read-out: rOX1 Ki) was 7.62; at human orexin 1 receptor (read-out: hOX1 Ki), 7.92; on human orexin 2 receptor (setting [1]) it was 6.01.

Consider `Cc1cccc(C(=O)N2[C@@H]3CC[C@H]2[C@H](Nc2ccc(Br)cn2)C3)c1-c1ncccn1` [Example 304, ((1S,2R,4R)-2-((5-bromopyridin-2-yl)amino)-7-azabicyclo[2.2.1]heptan-7-yl)(3-methyl-2-(pyrimidin-2-yl)phenyl)methanone], for which the pKi at rat orexin 1 receptor (setting [5]) was 7.92; at human orexin 1 receptor (setting [6]), 7.80; at human orexin 2 receptor (setting [1]), 6.34.

With `Cc1cccc(C(=O)N2[C@@H]3CC[C@H]2[C@H](Nc2cnc(Br)cn2)C3)c1-c1ncccn1` [Example 310, ((1S,2R,4R)-2-((5-bromopyrazin-2-yl)amino)-7-azabicyclo[2.2.1]heptan-7-yl)(3-methyl-2-(pyrimidin-2-yl)phenyl)methanone], the values for the pKi at rat orexin 1 receptor (setting [5]), on human orexin 1 receptor (setting [6]) and at human orexin 2 receptor (setting [1]) were 8.05, 8.15 and 6.42, respectively.

Turning to `O=C(c1cccc(F)c1-c1ncco1)N1C2CCC1C(Oc1ccc(C(F)(F)F)cn1)C2` (racemic) [Example 436], the pKi on rat orexin 1 receptor (setting [5]) was 6.84; at human orexin 1 receptor (setting [6]), 6.94; at human orexin 2 receptor it was 5.46.

Regarding `O=C(c1cccc(F)c1-n1nccn1)N1[C@@H]2CC[C@H]1[C@H](Nc1ncc(Br)cn1)C2` [Example 317, ((1S,2R,4R)-2-((5-bromopyrimidin-2-yl)amino)-7-azabicyclo[2.2.1]heptan-7-yl)(3-fluoro-2-(2H-1,2,3-triazol-2-yl)phenyl)methanone], the pKi at rat orexin 1 receptor (setting [5]) is 7.51; at human orexin 1 receptor (setting [6]) it was 7.15; on human orexin 2 receptor (setting [1]), 5.80.

Turning to `O=C(c1cccc(F)c1-c1ncc(F)cn1)N1[C@@H]2CC[C@H]1[C@H](Nc1cnc(C(F)(F)F)cn1)C2` [Example 398, (3-fluoro-2-(5-fluoropyrimidin-2-yl)phenyl)((1S,2R,4R)-2-((5-(trifluoromethyl)pyrazin-2-yl)amino)-7-azabicyclo[2.2.1]heptan-7-yl)methanone], the pKi at rat orexin 1 receptor (setting [5]) was 7.21; at human orexin 1 receptor (setting [6]), 7.09; at human orexin 2 receptor (setting [1]), 5.68.

As to `O=C(c1cccc(F)c1-c1ncccn1)N1[C@@H]2CC[C@H]1[C@H](Nc1ncc(Br)cn1)C2` [Example 315, ((1S,2R,4R)-2-((5-bromopyrimidin-2-yl)amino)-7-azabicyclo[2.2.1]heptan-7-yl)(3-fluoro-2-(pyrimidin-2-yl)phenyl)methanone], the pKi on rat orexin 1 receptor (setting [5]) was 7.52; at human orexin 1 receptor (setting [6]), 7.28; at human orexin 2 receptor (setting [1]) it was 5.73.

For the molecule `Cc1cccc(C(=O)N2[C@@H]3CC[C@H]2[C@H](Nc2ncc(Br)cn2)C3)c1-c1ncco1` [Example 314, ((1S,2R,4R)-2-((5-bromopyrimidin-2-yl)amino)-7-azabicyclo[2.2.1]heptan-7-yl)(3-methyl-2-(oxazol-2-yl)phenyl)methanone], the pKi on rat orexin 1 receptor (read-out: rOX1 Ki) is 8.22; on human orexin 1 receptor (read-out: hOX1 Ki), 7.85; on human orexin 2 receptor (setting [1]) it was 6.46.

Regarding `O=C(c1cccc(F)c1-c1ncccn1)N1C2CCC1C(Oc1ccc(C(F)(F)F)cn1)C2` (racemic) [Example 429], the pKi at rat orexin 1 receptor is 7.11; on human orexin 1 receptor, 6.92; at human orexin 2 receptor (setting [1]) it was 5.20.

Take `O=C(c1cccc(Cl)c1-c1ncccn1)N1[C@@H]2CC[C@H]1[C@H](Nc1cnc(C(F)(F)F)cn1)C2` [Example 300, (3-chloro-2-(pyrimidin-2-yl)phenyl)((1S,2R,4R)-2-((5-(trifluoromethyl)pyrazin-2-yl)amino)-7-azabicyclo[2.2.1]heptan-7-yl)methanone]: the pKi on rat orexin 1 receptor (read-out: rOX1 Ki) is 8.05; at human orexin 1 receptor (read-out: hOX1 Ki), 8.05; on human orexin 2 receptor (setting [1]) it was 7.03.

Regarding `O=C(c1ncccc1-c1ncccn1)N1[C@@H]2CC[C@H]1[C@H](Nc1ncc(C(F)(F)F)cc1F)C2` [Example 458, ((1S,2R,4R)-2-((3-fluoro-5-(trifluoromethyl)pyridin-2-yl)amino)-7-azabicyclo[2.2.1]heptan-7-yl)(3-(pyrimidin-2-yl)pyridin-2-yl)methanone], the pKi is 7.34 at rat orexin 1 receptor (setting [2]), 7.35 on human orexin 1 receptor (setting [3]) and 6.03 at human orexin 2 receptor (setting [4]).

For the molecule `O=C(c1cccc(F)c1-n1nccn1)N1C2CCC1C(Oc1ccc(Br)cn1)C2` (racemic) [Example 440], the pKi on rat orexin 1 receptor (setting [5]) was 6.93; on human orexin 1 receptor (setting [6]) it was 7.00; on human orexin 2 receptor (setting [1]), 5.22.

Regarding `O=C(c1cccc(F)c1-n1nccn1)N1[C@@H]2CC[C@H]1[C@H](Nc1ncc(C(F)(F)F)cc1Cl)C2` [Example 383, ((1S,2R,4R)-2-((3-chloro-5-(trifluoromethyl)pyridin-2-yl)amino)-7-azabicyclo[2.2.1]heptan-7-yl)(3-fluoro-2-(2H-1,2,3-triazol-2-yl)phenyl)methanone], the pKi on rat orexin 1 receptor (setting [5]) is 7.48; on human orexin 1 receptor (setting [6]), 7.80; at human orexin 2 receptor (setting [1]), 6.12.

As for `O=C(c1ccccc1-c1ccccc1)N1[C@@H]2CC[C@H]1[C@H](Nc1cnc(C(F)(F)F)cn1)C2` [Example 407, [1,1′-biphenyl]-2-yl((1S,2R,4R)-2-((5-(trifluoromethyl)pyrazin-2-yl)amino)-7-azabicyclo[2.2.1]heptan-7-yl)methanone], the pKi on rat orexin 1 receptor (read-out: rOX1 Ki) is 7.74; at human orexin 1 receptor (read-out: hOX1 Ki), 7.77; on human orexin 2 receptor (setting [1]) it was 6.98.

Take `Cc1cccc(C(=O)N2[C@@H]3CC[C@H]2[C@H](Nc2ccc(C#N)cn2)C3)c1-c1ncco1` [Example 394, 6-(((1S,2R,4R)-7-(3-methyl-2-(oxazol-2-yl)benzoyl)-7-azabicyclo[2.2.1]heptan-2-yl)amino)nicotinonitrile]: the pKi was 6.73 at rat orexin 1 receptor (setting [5]), 6.60 on human orexin 1 receptor (setting [6]) and 5.68 on human orexin 2 receptor (setting [1]).
